Measurements from patent US20240308960A1 (Sumitomo Pharma Co., Ltd., priority 2021, published 2024).

These compounds were tested against T1, Human orexin receptor type 2 (Homo sapiens, UniProt O43614) (assay: Test Example 1: agonist activity for orexin receptor type 2 (aequorin luminescence, intracellular calcium mobilization)). Conditions: compound 10 μm; CHO cells transiently expressing human orexin receptor type 2 and apoaequorin; relative percentage of luminescence for the luminescence (100%) of Orexin A (100 μM).
T1 sequence (O43614 1-444): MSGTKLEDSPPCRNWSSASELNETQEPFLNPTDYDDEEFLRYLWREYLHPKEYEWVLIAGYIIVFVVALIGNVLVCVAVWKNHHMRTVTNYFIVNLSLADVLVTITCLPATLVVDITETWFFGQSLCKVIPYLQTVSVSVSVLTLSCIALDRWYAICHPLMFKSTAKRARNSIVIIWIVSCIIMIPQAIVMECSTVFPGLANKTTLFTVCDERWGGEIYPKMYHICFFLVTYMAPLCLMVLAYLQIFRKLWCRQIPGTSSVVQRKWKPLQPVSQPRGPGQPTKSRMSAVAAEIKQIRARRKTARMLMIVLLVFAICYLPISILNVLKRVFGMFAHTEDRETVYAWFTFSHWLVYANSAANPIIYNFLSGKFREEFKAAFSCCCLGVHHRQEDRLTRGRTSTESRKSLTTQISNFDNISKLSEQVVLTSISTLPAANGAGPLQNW

| Compound | Agonist Activity (%) |
| --- | --- |
| CC(C)N1CCC(c2cccc(F)c2NC(=O)N2CCC(C)(c3nc4ccccc4o3)CC2)CC1 [Example 49, 4-(1,3-benzoxazol-2-yl)-N-{2-fluoro-6-[1-(propan-2-yl)piperidin-4-yl]phenyl}-4-methylpiperidine-1-carboxamide] | 196 |
| CC(C)N1CCN(c2cccc(Cl)c2NC(=O)N2CCC(C)(c3csc(C4CC4)n3)CC2)CC1 [Example 96, N-{2-chloro-6-[4-(propan-2-yl)piperazin-1-yl]phenyl}-4-(2-cyclopropyl-1,3-thiazol-4-yl)-4-methylpiperidine-1-carboxamide] | 160 |
| Cc1ccc(C2CC3CCC(C2)N3C(=O)Nc2c(F)cccc2N2CCN(C(C)C)CC2)cc1 (stereo not drawn) [Example 41, N-{2-fluoro-6-[4-(propan-2-yl)piperazin-1-yl]phenyl}-3-(4-methylphenyl)-8-azabicyclo[3.2.1]octane-8-carboxamide] | 47 |
| Cc1ccc(C2CCN(C(=O)Nc3c(F)cccc3OC3CCN(C(C)C)CC3)CC2)cc1 [Example 62, N-(2-fluoro-6-{[1-(propan-2-yl)piperidin-4-yl]oxy}phenyl)-4-(4-methylphenyl)piperidine-1-carboxamide] | 75 |
| Cc1ccc(C2CCN(C(=O)Nc3c(Cl)cccc3C3CCN(C(C)C)CC3)CC2)cc1 [Example 133, N-{2-chloro-6-[1-(propan-2-yl)piperidin-4-yl]phenyl}-4-(4-methylphenyl)piperidine-1-carboxamide] | 156 |
| COC(=O)c1cccc(N2CCN(C(C)C)CC2)c1NC(=O)N1CCC(c2ccc(C)cc2)CC1 [Example 38, methyl 2-{[4-(4-methylphenyl)piperidine-1-carbonyl]amino}-3-[4-(propan-2-yl)piperazin-1-yl]benzoate] | 119 |
| CCN1CCN(c2ccccc2NC(=O)N2CCC(c3cc(OC)cc(OC)c3)CC2)CC1 [Example 3, 4-(3,5-dimethoxyphenyl)-N-[2-(4-ethylpiperazin-1-yl)phenyl]piperidine-1-carboxamide] | 27 |

Other lines, results leading:

| Agonist Activity (%) | Compound |
| --- | --- |
| 131 | CC(C)N1CCN(c2cccc(F)c2NC(=O)N2CCC(C)(c3noc(C4CC(F)(F)C4)n3)CC2)CC1 [Example 75, 4-[5-(3,3-difluorocyclobutyl)-1,2,4-oxadiazol-3-yl]-N-{2-fluoro-6-[4-(propan-2-yl)piperazin-1-yl]phenyl}-4-methylpiperidine-1-carboxamide] |
| 116 | Cc1ccc(C2CCN(C(=O)Nc3c(F)cccc3N3C[C@@H]4C[C@H]3CN4C(C)C)CC2)cc1 [Example 150, N-{2-fluoro-6-[(1S,4S)-5-(propan-2-yl)-2,5-diazabicyclo[2.2.1]heptan-2-yl]phenyl}-4-(4-methylphenyl)piperidine-1-carboxamide] |
| 136 | CC(C)N1C[C@H]2C[C@@H]1CN2c1cccc(F)c1NC(=O)N1CCC(C)(c2noc(C3CC3)n2)CC1 [Example 152, 4-(5-cyclopropyl-1,2,4-oxadiazol-3-yl)-N-{2-fluoro-6-[(1R,4R)-5-(propan-2-yl)-2,5-diazabicyclo[2.2.1]heptan-2-yl]phenyl}-4-methylpiperidine-1-carboxamide] |
| 135 | CC(C)N1CCC(c2cccc(F)c2NC(=O)N2CCC(C)(c3noc(C4CC4)n3)CC2)CC1 [Example 43, 4-(5-cyclopropyl-1,2,4-oxadiazol-3-yl)-N-{2-fluoro-6-[1-(propan-2-yl)piperidin-4-yl]phenyl}-4-methylpiperidine-1-carboxamide] |
| 161 | CC(C)N1CCN(c2cccc(Br)c2NC(=O)N2CCC(C)(c3noc(C4CC4)n3)CC2)CC1 [Example 88, N-{2-bromo-6-[4-(propan-2-yl)piperazin-1-yl]phenyl}-4-(5-cyclopropyl-1,2,4-oxadiazol-3-yl)-4-methylpiperidine-1-carboxamide] |
